Source: ChEMBL document CHEMBL1201862, “PubChem BioAssay data set” (2004)
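Briefly, cells in 96-well plates were exposed to five compound concentrations for 48 h, and endpoints were estimated by linear interpolation. GI50 = concentration required for 50% inhibition of growth.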 Calls of active or inactive are those of the source. Cut-off read from the data, not from the text of the source: active = GI50 up to about 1.1 µM and inactive = higher.

How the values were obtained:
Experiment in all cases: NCI anticancer screen, dose series, 48 h
RXF 393 = system: RXF 393
HCT-15 = system: HCT-15
HCC 2998 = system: HCC 2998
OVCAR-4 = system: OVCAR-4
SNB-19 = system: SNB-19
HT-29 = system: HT-29
SF-268 = system: SF-268
KM12 = system: KM12
HOP-62 = system: HOP-62
EKVX = system: EKVX
IGROV-1 = system: IGROV-1
SF-295 = system: SF-295
SK-OV-3 = system: SK-OV-3
UACC-62 = system: UACC-62
SN12C = system: SN12C
SNB-75 = system: SNB-75
NCI-H460 = system: NCI-H460
UACC-257 = system: UACC-257
LOX IMVI = system: LOX IMVI

Measured: GI50

OC[C@@H]1CC#C/C=C\C#CC[C@@H]1CO
active: SF-268 < 0.01 µM
inactive: RXF 393 > 100 µM | HCC 2998 > 100 µM | OVCAR-4 > 100 µM | SNB-19 > 100 µM | HT-29 > 100 µM | KM12 > 100 µM | HOP-62 > 100 µM | EKVX > 100 µM | IGROV-1 > 100 µM | SF-295 > 100 µM | SK-OV-3 > 100 µM
> 100 µM: HCT-15

CC(C)(C)OC(=O)NCCC(N)=S
> 100 µM: HCT-15
inactive: RXF 393 > 100 µM | SNB-19 > 100 µM | UACC-62 > 100 µM | SN12C > 100 µM | SNB-75 > 100 µM | NCI-H460 > 100 µM | HT-29 > 100 µM | SF-268 > 100 µM | KM12 > 100 µM | HOP-62 > 100 µM | EKVX > 100 µM | UACC-257 > 100 µM | IGROV-1 > 100 µM | SF-295 > 100 µM | SK-OV-3 > 100 µM

Cc1ccc(NC(=O)SCCC(=O)O)cc1NC(=O)SCCC(=O)O
inactive: RXF 393 > 100 µM | HCC 2998 > 100 µM | OVCAR-4 > 100 µM | SNB-19 > 100 µM | SN12C > 100 µM | NCI-H460 > 100 µM | LOX IMVI > 100 µM | HT-29 > 100 µM | SF-268 > 100 µM | KM12 > 100 µM | HOP-62 > 100 µM | EKVX > 100 µM | UACC-257 > 100 µM | IGROV-1 > 100 µM | SF-295 > 100 µM
> 100 µM: HCT-15

O=c1n(CCCN2CCN(c3cccc(Cl)c3)CC2)nc2n1-c1ccc3ccccc3c1SC2
inactive: RXF 393 > 100 µM | OVCAR-4 > 100 µM | SNB-19 > 100 µM | UACC-62 > 100 µM | SN12C > 100 µM | SNB-75 > 100 µM | NCI-H460 > 100 µM | LOX IMVI > 100 µM | HT-29 9.04 µM | KM12 > 100 µM | HOP-62 > 100 µM | EKVX 99.3 µM | UACC-257 > 100 µM | IGROV-1 > 100 µM | SF-295 > 100 µM | SK-OV-3 > 100 µM
> 100 µM: HCT-15

Cn1c(=O)c2nc(-c3ccc(Cl)cc3)oc2n(C)c1=O
inactive: RXF 393 > 100 µM | HCC 2998 > 100 µM | OVCAR-4 > 100 µM | SNB-19 > 100 µM | UACC-62 > 100 µM | SN12C > 100 µM | SNB-75 > 100 µM | NCI-H460 > 100 µM | LOX IMVI > 100 µM | HT-29 > 100 µM | SF-268 > 100 µM | KM12 > 100 µM | EKVX > 100 µM | UACC-257 > 100 µM | SF-295 > 100 µM
> 100 µM: HCT-15

COC(=O)c1ccc(C)cc1/C=C1\Cc2ccc(C)cc2C1=O
inactive: RXF 393 14.7 µM | HCC 2998 19.7 µM | OVCAR-4 14.4 µM | SNB-19 17.2 µM | UACC-62 11.4 µM | SN12C 16.7 µM | SNB-75 5.64 µM | NCI-H460 40.2 µM | LOX IMVI 12.9 µM | HT-29 4.73 µM | SF-268 14.2 µM | KM12 11.6 µM | HOP-62 15.5 µM | EKVX 26.2 µM | UACC-257 22.6 µM | IGROV-1 10.4 µM | SF-295 15.3 µM
13 µM: HCT-15

CCOC(=O)/C(=C/c1ccc(OC)c(OC)c1)C(=O)c1ccccc1
15.1 µM: HCT-15
inactive: HCC 2998 18.3 µM | OVCAR-4 21.4 µM | SNB-19 15.8 µM | UACC-62 13.2 µM | SN12C > 10 µM | SNB-75 12.4 µM | NCI-H460 33.3 µM | HT-29 13.6 µM | SF-268 14.8 µM | KM12 14.9 µM | HOP-62 19.5 µM | EKVX 25.8 µM | UACC-257 15.1 µM | IGROV-1 20.2 µM | SF-295 21.2 µM | SK-OV-3 24.2 µM

CS(=O)(=O)CCC(N)P(=O)(O)O (stereo not given)
> 100 µM: HCT-15
inactive: OVCAR-4 > 100 µM | SNB-19 > 100 µM | UACC-62 > 100 µM | SN12C > 100 µM | SNB-75 > 100 µM | NCI-H460 > 100 µM | LOX IMVI > 100 µM | HT-29 > 100 µM | SF-268 > 100 µM | KM12 > 100 µM | HOP-62 > 100 µM | EKVX > 100 µM | UACC-257 > 100 µM | IGROV-1 > 100 µM | SF-295 > 100 µM | SK-OV-3 > 100 µM

C=CCNC(=S)N1c2ccccc2NC(=O)CC1C (stereo not given)
> 100 µM: HCT-15
inactive: RXF 393 > 100 µM | OVCAR-4 > 100 µM | SNB-19 > 100 µM | UACC-62 > 100 µM | SN12C > 100 µM | SNB-75 54.6 µM | NCI-H460 > 100 µM | LOX IMVI > 100 µM | HT-29 > 100 µM | SF-268 > 100 µM | KM12 > 100 µM | HOP-62 > 100 µM | EKVX > 100 µM | IGROV-1 > 100 µM | SF-295 > 100 µM

CC1C(=O)N(C)C2(CO)C(=O)O[C@H](C)C12O (stereo not given in full)
inactive: RXF 393 > 100 µM | HCC 2998 > 100 µM | OVCAR-4 > 100 µM | SNB-19 > 100 µM | UACC-62 > 100 µM | HT-29 > 100 µM | SF-268 > 100 µM | KM12 > 100 µM | HOP-62 > 100 µM | EKVX > 100 µM | IGROV-1 > 100 µM | SF-295 28.1 µM | SK-OV-3 > 100 µM
> 100 µM: HCT-15

C/N=C(\SC)N(C)c1nc(=[N+](C)C)ss1.[O-][Cl+3]([O-])([O-])[O-]
inactive: RXF 393 > 100 µM | HCC 2998 > 100 µM | SNB-19 > 100 µM | UACC-62 4.9 µM | SN12C > 100 µM | SNB-75 3.81 µM | LOX IMVI > 100 µM | HT-29 4.22 µM | SF-268 > 100 µM | KM12 > 100 µM | HOP-62 > 100 µM | EKVX 45.3 µM | UACC-257 > 100 µM | IGROV-1 > 100 µM | SF-295 > 100 µM | SK-OV-3 > 100 µM
> 100 µM: HCT-15

Cc1cc(C)c(N[S+]([O-])c2cccc(C(F)(F)F)c2)c(C)c1 (stereo not given)
> 100 µM: HCT-15
inactive: RXF 393 > 100 µM | SNB-19 > 100 µM | SN12C > 100 µM | NCI-H460 > 100 µM | HT-29 > 100 µM | SF-268 > 100 µM | KM12 > 100 µM | HOP-62 > 100 µM | UACC-257 > 100 µM | SF-295 > 100 µM

Cc1[nH]c2ccccc2c1CC/C(=N\Nc1ccccc1)c1ccccc1
inactive: RXF 393 > 100 µM | HCC 2998 > 100 µM | OVCAR-4 > 100 µM | UACC-62 > 100 µM | SNB-75 28.7 µM | NCI-H460 > 100 µM | HT-29 > 100 µM | KM12 > 100 µM | HOP-62 > 100 µM | EKVX > 100 µM | UACC-257 > 100 µM | IGROV-1 > 100 µM | SF-295 94.6 µM | SK-OV-3 > 100 µM
> 100 µM: HCT-15

Cc1c(Cl)cccc1NC(=O)CC1C(=O)Nc2ccccc2S1(=O)=O (stereo not given)
10.3 µM: HCT-15
inactive: RXF 393 14.7 µM | HCC 2998 16.7 µM | OVCAR-4 20.5 µM | SNB-19 33 µM | UACC-62 7.52 µM | SN12C 16.7 µM | SNB-75 17.2 µM | NCI-H460 14.7 µM | LOX IMVI 14.6 µM | HT-29 17.6 µM | SF-268 19.6 µM | EKVX 25.6 µM | UACC-257 24 µM | IGROV-1 15.3 µM | SF-295 19.7 µM

CC(C)c1cccc(C(C)C)c1NC(=O)C(=O)C1SC(=S)NC1=O (stereo not given)
inactive: RXF 393 > 100 µM | OVCAR-4 > 100 µM | SNB-19 > 100 µM | UACC-62 > 100 µM | SN12C > 100 µM | SNB-75 > 100 µM | NCI-H460 > 100 µM | LOX IMVI > 100 µM | HT-29 > 100 µM | SF-268 > 100 µM | KM12 > 100 µM | HOP-62 > 100 µM | EKVX > 100 µM | UACC-257 > 100 µM | IGROV-1 > 100 µM | SF-295 > 100 µM | SK-OV-3 > 100 µM
> 100 µM: HCT-15

O=c1cccccc1NCCCCCCCNc1cccccc1=O
35.2 µM: HCT-15
inactive: RXF 393 7.74 µM | OVCAR-4 27 µM | SNB-19 33.7 µM | UACC-62 19.4 µM | SN12C 49.3 µM | SNB-75 95.9 µM | NCI-H460 29.7 µM | LOX IMVI 12.1 µM | HT-29 55.5 µM | SF-268 43.5 µM | KM12 56.4 µM | HOP-62 > 100 µM | EKVX 20.4 µM | UACC-257 16.4 µM | IGROV-1 54.2 µM | SF-295 34 µM | SK-OV-3 42.6 µM

COC(=O)NN1C(C)=C(C(=O)OC)C2(C#N)C(C(=O)OC)=C(C)N(NC(=O)OC)C12N (stereo not given)
inactive: HCC 2998 > 100 µM | OVCAR-4 > 100 µM | SNB-19 > 100 µM | UACC-62 > 100 µM | SN12C > 100 µM | NCI-H460 > 100 µM | LOX IMVI > 100 µM | HT-29 > 100 µM | SF-268 > 100 µM | HOP-62 > 100 µM | EKVX > 100 µM | UACC-257 > 100 µM | IGROV-1 > 100 µM | SK-OV-3 > 100 µM
> 100 µM: HCT-15

C#CC[C@]12CC(=O)CC[C@H]1CC(=O)C2
> 100 µM: HCT-15
inactive: RXF 393 > 100 µM | HCC 2998 > 100 µM | OVCAR-4 > 100 µM | SNB-19 > 100 µM | UACC-62 > 100 µM | SN12C > 100 µM | SNB-75 > 100 µM | NCI-H460 > 100 µM | SF-268 > 100 µM | KM12 > 100 µM | HOP-62 > 100 µM | UACC-257 > 100 µM | IGROV-1 > 100 µM | SK-OV-3 > 100 µM
